Laboratory results taken from the NIST ThermoML archive (doi:10.1016/j.tca.2017.12.015).
± gives the expanded uncertainty stated by the source.

Settings: for Normal melting temperature: Crystal 1, DTA

Row | Structure (SMILES) | Normal melting temperature [°C] | Triple point temperature (Crystal 2, DSC) [K]
1 | OC[C@@H](O)[C@@H](O)[C@H](O)[C@@H](O)CO [D-sorbitol] | 99.70 ± 2 | –
2 | O=C[C@H](O)[C@@H](O)[C@H](O)[C@H](O)CO [D-glucose] | 162.10 ± 2 | –

Results, then the compound that gave them:

Row | Normal melting temperature [°C] | Triple point temperature (Crystal 2, DSC) [K] | Structure (SMILES)
3 | 190.90 ± 2 | – | OC[C@H]1O[C@@](CO)(O[C@H]2O[C@H](CO)[C@@H](O)[C@H](O)[C@H]2O)[C@@H](O)[C@@H]1O [D-sucrose]
4 | 254.70 ± 2 | – | NCC(=O)O [2-aminoacetic acid]
5 | 236.20 ± 2 | 432.55 ± 6 | Cn1c(=O)c2c(ncn2C)n(C)c1=O [caffeine]
